Where two headings read alike, the source gives them in different places.
Experiment: Plasma levels of lasofoxifene after a single oral dose in healthy postmenopausal women (LC-MS-MS)
Type: in vivo, human
Conditions: for concentration at 1 h: 1 hour after dosing; for concentration at 2 h: 2 hours after dosing; for concentration at 4 h: 4 hours after dosing; for concentration at 8 h: 8 hours after dosing; for concentration at 12 h: 12 hours after dosing; for concentration at 24 h: 24 hours after dosing; for concentration at 48 h: 48 hours after dosing; for concentration at 72 h: 72 hours after dosing; for concentration at 120 h: 120 hours after dosing; for concentration at 0.5 h: .5 hours after dosing
Procedure: A dose of 0.8 mg of lasofoxifene was administered to 12 healthy, postmenopausal women and blood samples were analyzed periodically as shown in Table 1.
A 1.0 ml sample of human plasma was analyzed for lasofoxifene according to CEDRA's Procedure TM-234 (CEDRA's address). Internal standard used for this procedure was a pentadeuterated lasofoxifene. The plasma sample containing lasofoxifene and the internal standard was extracted with MTBE. Following centrifugation, the organic layer was transferred to another tube and evaporated. An aliquot of the reconstituted sample extract was then injected onto a SCIEX API^III-PLUS LC-MS-MS instrument equipped with a short ion exchange HPLC column. Peak areas of the m/z 414→97.9 daughter ion of lasofoxifene were measured against the peak areas of the mlz 419→97.9 daughter of the internal standard. Quantitation was performed using a 1/x weighted least squares regression line generated from spiked plasma calibration samples.
The procedure of Example 1 was repeated with a dose of 10-mg lasofoxifene administered to 8 healthy postmenopausal women. Plasma levels for lasofoxifene are shown for 672 hours in Table 2.

[1] = female, human, plasma, single oral 10 mg dose, healthy post menopausal women, read-out: Mean plasma concentration, na Lasofoxifene per ml plasma
[2] = female, human, plasma, single oral dose 0.8 mg, healthy post menopausal women, read-out: Mean plasma concentration, ng Lasofoxifene per ml plasma

Oc1ccc2c(c1)CC[C@H](c1ccccc1)[C@@H]2c1ccc(OCCN2CCCC2)cc1 [lasofoxifene, (−)-cis-6-phenyl-5-[4-(2-pyrrolidin-1-yl-ethoxy)-phenyl]-5,6,7,8-tetrahydronaphthalen-2-ol, D-tartrate]
duration of therapeutically effective dose (level) (doses from 10 to 20 mg, see Table 2): up to 30 days | concentration at 168 h (female, human, plasma, oral, single dose of 0.8 mg, healthy women, after 168 hours (1 week), read-out: blood level (concentration)): ~0.3 ng/mL | concentration at 0 h (female, human, plasma, single oral 10 mg dose, healthy post menopausal women, 0 hours after dosing, read-out: Mean plasma concentration, na Lasofoxifene per ml plasma): 0 ng/mL | concentration at 1 h [1]: 4.42 ng/mL | concentration at 2 h [1]: 5.64 ng/mL | concentration at 4 h [1]: 8.46 ng/mL | concentration at 8 h [1]: 10.4 ng/mL | concentration at 12 h [1]: 10.2 ng/mL | concentration at 24 h [1]: 8.35 ng/mL | concentration at 48 h [1]: 7.16 ng/mL | concentration at 72 h [1]: 5.97 ng/mL | concentration at 120 h [1]: 4.56 ng/mL | concentration at 168 h (female, human, plasma, single oral 10 mg dose, healthy post menopausal women, 168 hours after dosing, read-out: Mean plasma concentration, na Lasofoxifene per ml plasma): 3.74 ng/mL | concentration at 216 h (female, human, plasma, single oral 10 mg dose, healthy post menopausal women, 216 hours after dosing, read-out: Mean plasma concentration, na Lasofoxifene per ml plasma): 2.88 ng/mL | concentration at 264 h (female, human, plasma, single oral 10 mg dose, healthy post menopausal women, 264 hours after dosing, read-out: Mean plasma concentration, na Lasofoxifene per ml plasma): 2.27 ng/mL | concentration at 336 h (female, human, plasma, single oral 10 mg dose, healthy post menopausal women, 336 hours after dosing, read-out: Mean plasma concentration, na Lasofoxifene per ml plasma): 1.6 ng/mL | concentration at 408 h (female, human, plasma, single oral 10 mg dose, healthy post menopausal women, 408 hours after dosing, read-out: Mean plasma concentration, na Lasofoxifene per ml plasma): 1.05 ng/mL | concentration at 480 h (female, human, plasma, single oral 10 mg dose, healthy post menopausal women, 480 hours after dosing, read-out: Mean plasma concentration, na Lasofoxifene per ml plasma): 0.75 ng/mL | concentration at 576 h (female, human, plasma, single oral 10 mg dose, healthy post menopausal women, 576 hours after dosing, read-out: Mean plasma concentration, na Lasofoxifene per ml plasma): 0.5 ng/mL | concentration at 672 h (female, human, plasma, single oral 10 mg dose, healthy post menopausal women, 672 hours after dosing, read-out: Mean plasma concentration, na Lasofoxifene per ml plasma): 0.31 ng/mL | concentration at 0.5 h [1]: 2.33 ng/mL | concentration at 1 h [2]: 0.32 ng/mL | concentration at 2 h [2]: 0.37 ng/mL | concentration at 4 h [2]: 0.46 ng/mL | concentration at 8 h [2]: 0.72 ng/mL | concentration at 12 h [2]: 0.73 ng/mL | concentration at 24 h [2]: 0.64 ng/mL | concentration at 48 h [2]: 0.56 ng/mL | concentration at 72 h [2]: 0.49 ng/mL | concentration at 120 h [2]: 0.4 ng/mL | concentration at 168 h (female, human, plasma, single oral dose 0.8 mg, healthy post menopausal women, 168 hours after dosing, read-out: Mean plasma concentration, ng Lasofoxifene per ml plasma): 0.34 ng/mL | concentration at 0.5 h [2]: 0.13 ng/mL | initial blood level (single dose of 0.8 mg, healthy women, within a few hours): 0.7 ng/mL

— patent publication US6436977B1, “Dosing regimens for lasofoxifene” (Pfizer Inc., priority 1999, dated 2002)
